Experimental data as given in US9034825B2, “Treatment of myocardial injury with humanin analogs” (Albert Einstein College of Medicine of Yeshiva University, priority 2007, dated 2015).
“And” between values parts separate entries of the source, which are not always exact repeats. Identical values can stand only once.

Tests used:
[1] = test system: PEPCK mRNA in the liver; experiment: Hepatic PEPCK mRNA by qRT-PCR at end of clamp after ICV infusion; type: in vivo, rat; settings: ICV infusion for 6 h
Procedure: (§1) Total RNA was extracted following Clontech's protocol. First-stranded cDNA was synthesized from 1 μg of total RNA using Superscript III (Gibco, Gaithersburg, Md.). Hepatic glucose-6-phosphatase (Glc-6-Pase) and phosphoenolpyruvate carboxykinase (PEPCK) mRNA abundance were assessed by qRT-PCR as described previously (Buettner et al., 2005). Quantification of these peptides and their copy number was normalized for GAPDH and 18S to correct for loading irregularities. The data presented are those normalized by GAPDH.

[2] = test system: 3T3L1 adipocytes; experiment: Glucose transport in 3T3L1 adipocytes; type: cell-based; settings: 3T3L1 cells, basal and insulin-stimulated
Description: Using the 3T3L1 adipocyte model, the effects of humanin on insulin action and glucose transport were investigated.

[3] = test system: Sprague-Dawley rats; experiment: ICV infusion of humanin or F6A HN with basal and hyperinsulinemic clamp (Example 2); type: in vivo, rat
Description: Young (3 mo old, n=6 in each group), male Sprague-Dawley rats (Charles River Laboratories, Wilmington, Mass.) were used for this study. Rats were housed in individual cages and were subjected to a standard light (6:00 AM to 6:00 PM)—dark (6:00 PM to 6:00 AM) cycle. All rats were fed ad libitum using regular rat chow that consisted of 64% carbohydrate, 30% protein, and 6% fat with a physiological fuel value of 3.3-kcal/g chow. 2 to 4 weeks before the in vivo study, the rats were anesthetized by inhalation of isoflurane and ICV cannula was placed in the third ventricle for infusions of humanin, humanin analog F6A HN or artificial CSF (aCSF), as previously described (Muzumdar et al., 2003) (FIG. 6). Briefly, a 26-gauge stainless steel guide cannula (Plastics One, Roanoke, Va.) was chronically implanted into the third ventricles using the following coordinates from bregma: anterior-posterior; +0.2 mm dorsal-ventral; −9.0 mm medial-lateral; 0.0 directly on the mid-sagittal suture, followed by a 28-gauge dummy cannula, inserted to prevent clogging of the guide cannula. The implant was secured to the skull with Caulk Grip dental cement, and the skin was closed over the implant using wound clips. The recovery of rats from the surgical stress was monitored with daily weight, food intake, and movement.
Upon recovery of body weight, usually a week, indwelling catheters were placed in the right internal jugular vein and in the left carotid artery (Muzumdar et al., 2003). The venous catheter was extended to the level of the right atrium, and the arterial catheter was advanced to the level of the aortic arch. Recovery was continued until body weight was within 3% of the pre-operative weight (˜4-6 days). In the rats that received peripheral humanin, only the vascular catheters were placed.
Studies were performed in unrestrained rats using the insulin clamp technique, in combination with high performance liquid chromatography-purified [3-^3H]glucose, as described previously (Liu et al., 1998). Food was removed for ˜5 h before the in vivo protocol. All studies lasted 360 min and included a 120-min equilibration period, a 120-min basal period for assessment of the basal glucose turnover, and a 120-min hyperinsulinemic clamp period. All rats received ICV infusions (bolus followed by continuous ICV infusions of humanin, F6A HN or aCSF, depending on the group) over the entire 6 hours of the study. At the beginning of the basal period and 120 min before starting the glucose/insulin infusions, a primed-continuous infusion of high performance liquid chromatography-purified [3-^3H]glucose (NEN Life Science Products, Boston, Mass.; 20 μCi of bolus, 0.2 μCi/min) was initiated and maintained throughout the remaining 4 h of the study. In the final 2 hours of the study, the rats were subjected to hyperinsulinemic clamp. The protocol followed during the insulin clamp study was similar to that previously described (Liu et al., 1998). Briefly, a primed-continuous infusion of regular insulin (3 milliunits/kg-min) was administered, and a variable infusion of a 25% glucose solution was started and periodically adjusted to clamp the plasma glucose concentration at 7-8 mM. To prevent endogenous insulin secretion and in order to control for possible effects of ICV infusions on the endocrine pancreas, somatostatin (1.5 μg/kg-min) was also infused in all the groups.
A bolus of humanin (6 μg) was followed by a continuous infusion over 6 hours (total dose of 18 μg, 0.1 μg/kg/min).
F6A HN has one amino acid substitution (F6A-phenylalanine to alanine on position 6) and has been characterized. A bolus of F6 A HN ([…]) was followed by a continuous infusion over 6 hours (total 18 μg, 0.1 μg/kg/min).
Plasma glucose (sample volume 10 μl) was measured by the glucose oxidase method (Glucose Analyzer II, Beckman Instruments, Palo Alto, Calif.). […]

[4] = test system: Sprague-Dawley rats; experiment: ICV infusion with pancreatic insulin clamp or hyperinsulinemic clamp (Example 5); type: in vivo, rat; settings: for peripheral glucose infusion rate: ICV, hyperinsulinemic clamp
Procedure: Studies were conducted with 92 three-month-old male Sprague-Dawley rats (Charles River Laboratories). Rats were housed in individual cages and subjected to a standard light-dark cycle. Rats were prepared for clamps as described in FIG. 15A. Three weeks before the in vivo studies catheters were implanted in the third cerebral ventricle (Muzumdar et al. 2003). One week before clamp experiments, catheters were placed in the right internal jugular vein and left carotid artery (Liu et al. 1998).
A primed-continuous ICV infusion of HN, F6A-HN (total dose of 20 μg), STAT-3 inhibitor (75 pmol) (Buettner et al. 2006), or aCSF was initiated at t=0 and maintained for the remainder of the experiment (FIG. 15A). Pancreatic insulin-clamp studies or euglycemic-hyperinsulinemic clamps were performed in conscious, unrestrained, catheterized mice for last 120 minutes as described previously (Bahar et al. 2006, Muzumdar et al. 2006). In the intra-venous group, HN, F6A, Colivelin, and HNGF6A were infused intravenously and hyperinsulinemic clamps were performed as described previously (Loeb et al. 2005). Estimation of glucose, glucose fluxes, insulin, FFA were done as described previously (Loeb et al. 2005). HN measurements were performed by an in-house, ELISA utilizing affinity purified humanin antibodies that recognize both human and rat humanin and has a limit of detection of 0.1 ng/ml (Hwang, and Cohen personal communication).

[5] = test system: Glc-6-Pase mRNA in the liver; experiment: Hepatic Glc-6-Pase mRNA by qRT-PCR at end of clamp after ICV infusion; type: in vivo, rat; settings: ICV infusion for 6 h
Procedure: as §1

[6] = ICV 18 μg over 6 h, basal period
[7] = ICV 18 μg over 6 h, hyperinsulinemic clamp

CC[C@H](C)[C@H](NC(=O)[C@H](CCC(=O)O)NC(=O)[C@H](CO)NC(=O)[C@@H](NC(=O)[C@H](CC(C)C)NC(=O)[C@H](CC(C)C)NC(=O)[C@H](CC(C)C)NC(=O)[C@H](CC(C)C)NC(=O)[C@H](CS)NC(=O)[C@H](CO)NC(=O)[C@H](Cc1ccccc1)NC(=O)CNC(=O)[C@H](CCCNC(=N)N)NC(=O)[C@@H]1CCCN1C(=O)[C@H](C)NC(=O)[C@@H](N)CCSC)[C@@H](C)O)C(=O)N[C@@H](CC(=O)O)C(=O)N[C@@H](CC(C)C)C(=O)N1CCC[C@H]1C(=O)N[C@H](C(=O)N[C@@H](CCCCN)C(=O)N[C@@H](CCCNC(=N)N)C(=O)N[C@@H](CCCNC(=N)N)C(=O)N[C@@H](C)C(=O)O)C(C)C [Humanin, maprgfscll lltseidlpv krra]
PEPCK mRNA in the liver, ratio to GAPDH ([1]; end of clamp (Example 2)): 12.4 ±2.7
glucose transport [2]: significantly enhanced basal as well as insulin-stimulated glucose transport
Glycogen synthesis, Basal [3, 6]: 4.89 ± 0.61
Glycolysis, Basal [3, 6]: 7.99 ± 0.73 mg/kg/min
HGP, Basal [3, 6]: 12.87 ± 1.6 mg/kg/min
FFA [3, 7]: 0.33 ± 0.03 mEq/L
Glycogen synthesis, Clamp [3, 7]: 9.75 ± 0.92
Glycolysis, Clamp [3, 7]: 15.1 ± 1.0 mg/kg/min
HGP, Clamp [3, 7]: 2.27 ± 0.37 mg/kg/min
Rd, Clamp [3, 7]: 24.9 ± 1.6 mg/kg/min
GIR, Clamp ([3]; ICV 18 μg over 6 h, hyperinsulinemic clamp 3 mU/kg/min): 22.8 ± 1.64 mg/kg/min
increase in peripheral glucose uptake (Rd) ([3]; ICV HN, hyperinsulinemic clamp): ~150%
more reduction in hepatic glucose production (HGP) ([3]; ICV HN, hyperinsulinemic clamp): ~50%
suppression of FFA compared to controls ([3]; ICV HN, hyperinsulinemic clamp): significantly higher
glucose infusion rate (GIR) relative to aCSF ([3]; ICV HN, hyperinsulinemic clamp 3 mU/kg/min): 165 % of aCSF
glucose infusion rate (GIR) during the hyperinsulinemic clamp ([3]; ICV HN, Example Summary, in mg/kg/min (unit assumed)): 25.2 ±2.6
humanin in the rat periphery ([3]; after ICV infusion): No humanin was detected
hepatic glucose output ([4]; ICV HN 0.1 μg/kg/min, basal and high insulin clamp): significant decrease in hepatic glucose output
serum concentrations of HN during ICV infusion ([4]; ICV infusion): undetectable
peripheral glucose infusion rate [4]: increased
expression of G-6Pase in the liver, ratio to GAPDH ([5]; end of clamp (Example 2), listed as HN): 0.87 ±0.37 and 0.89 ±0.28

IGFBP-3: non glycosylated hIGFBP-3 (IGF binding protein-3), provided by Celtrix
PEPCK mRNA in the liver, ratio to GAPDH ([1]; end of clamp (Example 1)): 3.2 ±0.3
glucose transport [2]: inhibited insulin-stimulated glucose transport
peripheral glucose infusion rate [4]: decrease
expression of G-6Pase in the liver, ratio to GAPDH ([5]; end of clamp (Example 1)): no changes
